Data published in ChEMBL document CHEMBL1153799, “Synthesis of sialic acid derivatives having a C=C double bond substituted at the C-5 position and their glycopolymers” (Bioorg Med Chem Lett, 2009).
The source made the active and inactive calls.

What was measured:
Assay type in all cases: functional, organism-based
Influenza A virus [1] = experiment: Inhibition of human Influenza virus A/PR/8/34 (H1N1)-mediated hemagglutinination of erythrocytes; conditions: A/Puerto Rico/8/1934(H1N1)
H3N2 subtype = experiment: Inhibition of human Influenza virus A/Aichi/2/68(H3N2)-mediated hemagglutinination of erythrocytes; conditions: A/Aichi/2/1968(H3N2)
Influenza A virus [2] = experiment: Inhibition of duck Influenza A virus A/DK/HK/313/78(H5N3)-mediated hemagglutinination of erythrocytes

Measured: Activity

C=CC(=O)NCC(=O)N[C@H]1[C@H]([C@H](O)[C@H](O)CO)O[C@](SCCCCCCCCCCCC)(C(=O)O)C[C@@H]1O
active: Influenza A virus [1] | H3N2 subtype | Influenza A virus [2]

C=CC(=O)NCCCCCC(=O)N[C@H]1[C@H]([C@H](O)[C@H](O)CO)O[C@](SCCCCCCCCCCCC)(C(=O)O)C[C@@H]1O
active: Influenza A virus [1] | H3N2 subtype | Influenza A virus [2]
